Test results from ChEMBL document CHEMBL5346906, “Discovery of novel tranylcypromine-based derivatives as LSD1 inhibitors for gastric cancer treatment” (Eur J Med Chem, 2023).
Activity calls are given as the source filed them. The calls are words filed in the database; no cut-off is given here.

Experiments:
[1] = target: T1, Lysine-specific histone demethylase 1A (Homo sapiens, UniProt O60341); experiment: Inhibition of recombinant LSD1 (unknown origin) preincubated for 10 mins in presence of H3K4Me2 measured after 30 mins by measuring fluorescence intensity by fluorescence based microplate reader
[2] = system: MGC-803; experiment: Antiproliferative activity against human MGC-803 cells incubated for 48 hrs measured by MTT assay; format: functional, cell-based; conditions: MGC-803, 48 h
[3] = system: KYSE-450; experiment: Antiproliferative activity against human KYSE-450 cells incubated for 48 hrs measured by MTT assay; format: functional, cell-based; conditions: KYSE-450, 48 h
[4] = system: HCT-116; experiment: Antiproliferative activity against human HCT-116 cells incubated for 48 hrs measured by MTT assay; format: functional, cell-based; conditions: HCT-116, 48 h
[5] = target: T1, Lysine-specific histone demethylase 1A; experiment: Inhibition of LSD1 in human MGC-803 cells assessed as increase in methylation of H3K4 at 24 micromol/L; format: cell-based; conditions: dose 24.0 µmol/L
[6] = target: T1, Lysine-specific histone demethylase 1A; experiment: Inhibition of LSD1 in human MGC-803 cells assessed as increase in methylation of H3K9 at 24 micromol/L; format: cell-based; conditions: dose 24.0 µmol/L

Compound	IC50 [1] [µM]	IC50 [2] [µM]	IC50 [3] [µM]	IC50 [4] [µM]	inhibition [5]	inhibition [6]
CN1CCN(c2ccc(NC(=O)c3cccc(CN[C@@H]4C[C@H]4c4ccc(F)c(F)c4)c3)cc2)CC1	0.249	–	–	–	–	–
O=C(Nc1ccc(N2CCOCC2)c(F)c1)c1cccc(CN[C@@H]2C[C@H]2c2ccc(F)c(F)c2)c1	0.249	–	–	–	–	–
NC(=O)C1CCN(C(=O)c2cccc(CN[C@@H]3C[C@H]3c3ccc(F)c(F)c3)c2)CC1	0.108	> 128	> 128	> 128	–	–
O=C(c1cccc(CN[C@@H]2C[C@H]2c2ccc(F)c(F)c2)c1)N1CC2CCCCC2C1 (stereo not given in full)	0.058	51.2	68.9	55.7	–	–
NC(=O)CNC(=O)c1cccc(CN[C@@H]2C[C@H]2c2ccc(F)c(F)c2)c1	0.108	–	–	–	–	–
O=C(c1cccc(CN[C@@H]2C[C@H]2c2ccc(F)c(F)c2)c1)N1CCN(c2ccccc2)CC1	0.0563	–	–	–	–	–
CCCCNC(=O)c1cccc(CN[C@@H]2C[C@H]2c2ccc(F)c(F)c2)c1	0.203	–	–	–	–	–
CN1CCN(C(=O)c2cccc(CN[C@@H]3C[C@H]3c3ccc(F)c(F)c3)c2)CC1	0.222	–	–	–	–	–
NCC1CCN(C(=O)c2cccc(CN[C@@H]3C[C@H]3c3ccc(F)c(F)c3)c2)CC1	0.181	> 128	> 128	> 128	–	–
CN(Cc1ccccc1)C(=O)c1cccc(CN[C@@H]2C[C@H]2c2ccc(F)c(F)c2)c1	0.0421	–	–	–	–	–
O=C(NCC1CCNCC1)c1cccc(CN[C@@H]2C[C@H]2c2ccc(F)c(F)c2)c1	0.173	–	–	–	–	–
COC(=O)c1cccc(NC(=O)c2cccc(CN[C@@H]3C[C@H]3c3ccc(F)c(F)c3)c2)c1	0.0321	50.1	67.9	45.7	–	–
Cc1ccc(NC(=O)c2cccc(CN[C@@H]3C[C@H]3c3ccc(F)c(F)c3)c2)cc1	0.0364	–	–	–	–	–
CN1CCN(S(=O)(=O)c2cccc(NC(=O)c3cccc(CN[C@@H]4C[C@H]4c4ccc(F)c(F)c4)c3)c2)CC1	0.325	–	–	–	–	–
O=C(Nc1cccc(S(=O)(=O)N2CCOCC2)c1)c1cccc(CN[C@@H]2C[C@H]2c2ccc(F)c(F)c2)c1	0.0326	29.7	38.7	36.1	–	–
O=C(NC1CC(F)(F)C1)c1cccc(CN[C@@H]2C[C@H]2c2ccc(F)c(F)c2)c1	0.115	54.9	64.5	58.2	–	–
O=C(c1cccc(CN[C@@H]2C[C@H]2c2ccc(F)c(F)c2)c1)N1CCc2ccccc21	0.0261	33.7	51.5	50.1	–	–
NC1CCN(C(=O)c2cccc(CN[C@@H]3C[C@H]3c3ccc(F)c(F)c3)c2)CC1	0.668	–	–	–	–	–
O=C(O)c1ccc(CN2CCC(CN[C@@H]3C[C@H]3c3ccccc3)CC2)cc1 [GSK2879552]	–	> 64	> 64	> 64	–	–
O=C(c1cccc(CN[C@@H]2C[C@H]2c2ccc(F)c(F)c2)c1)N1CCC(O)CC1	0.141	–	–	–	–	–
COCCNC(=O)c1cccc(CN[C@@H]2C[C@H]2c2ccc(F)c(F)c2)c1	0.231	–	–	–	–	–
c1ccc([C@@H]2C[C@H]2NC2CCNCC2)cc1	–	> 64	> 64	> 64	Active	Active
O=C(O)c1cccc(CN[C@@H]2C[C@H]2c2ccc(F)c(F)c2)c1	0.517	–	–	–	–	–
CCN1CCN(c2ccc(NC(=O)c3cccc(CN[C@@H]4C[C@H]4c4ccc(F)c(F)c4)c3)cc2)CC1	0.0428	28	24.8	28.1	–	–
O=C(O)c1cccc(NC(=O)c2cccc(CN[C@@H]3C[C@H]3c3ccc(F)c(F)c3)c2)c1	0.479	–	–	–	–	–
